{"source": "patent US10656142B2", "about": "“Measuring antiplatelet activity” (Melaleuca, Inc., priority 2014, dated 2020)", "system": "platelets", "test": "Rate of platelet superoxide production during oscillatory shear stress (EPR with CAT1H spin probe) in platelet rich plasma, before and after supplementation", "assay_type": "in vivo, Human", "conditions": "24 healthy volunteers; measured before and 10 hours after supplementation; Provex CV single or double daily dose, aspirin 325 mg; randomized, single-blind, cross-over study", "procedure": "Human venous blood was collected via a low-pressure protocol. A manual blood pressure cuff was applied to the arm with a maximum pressure of 40 mmHg. The first sodium citrate vacutainer (75 USP Units, 4 mL) was discarded, and three more were then filled. Blood was centrifuged at 100 g for 19 minutes with no active braking mechanism. Centrifuged blood was then allowed to sit for 20 to 30 minutes. […] An initial 30 μL sample was taken via glass capillary tube for a baseline reading. The SSC was started, and an initial, 5 point kinetic sample was measured. […]\nAmplitude readings were recalculated into μM, and a graph depicting μM/min was prepared. […]\n24 healthy volunteers were supplemented with the test composition (Provex CV®) at two different dosages (single or double daily dose) or aspirin (325 mg) in a randomized, single-blind, cross-over study. The rate of superoxide production during shear stress was measured before and 10 hours after supplementation."}
{"smiles": "CC(=O)Oc1ccccc1C(=O)O", "note": "[aspirin]", "values": [{"measurement": "inhibition of platelet activation (rate of superoxide production during shear stress)", "value": "no effect observed"}]}
